In one assay the target is human Gal-1 (hGal-1). Nature of the assay: Competitive binding assay: binding of biotinylated hGal-1 to microplate-adsorbed asialofetuin (ASF). The settings on record: Activities on hGal-1; mean values of several measurements. A digest of the protocol: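 Biotin-hGal-3/hGal-1 300-1000 ng/mL + cpd (DMSO dilutions) on ASF-coated plate, 3 h 4° C; wash; SA-HRP 80 ng/mL 1 h 4° C; wash; ABTS. IC50 = mean of several runs. hGal-1 preferably Cys→Ser (all six) mutant.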

The next assay has as its target human Gal-3 (hGal-3) (Homo sapiens (Human), UniProt P17931). The assay is described as follows: Competitive binding assay: binding of biotinylated hGal-3 to microplate-adsorbed asialofetuin (ASF). The conditions noted are these: Activity on hGal-3; mean values of several measurements. In a few lines: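 Biotinylated hGal-3 (300-1000 ng/mL) bound to ASF-coated wells with serially diluted compound, 3 h at 4° C. After washing, bound protein was detected with streptavidin-peroxidase (80 ng/mL, 1 h, 4° C) and ABTS substrate; IC50 values are means of several measurements.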

human Gal-3 (hGal-3), sequence (P17931 whole entry): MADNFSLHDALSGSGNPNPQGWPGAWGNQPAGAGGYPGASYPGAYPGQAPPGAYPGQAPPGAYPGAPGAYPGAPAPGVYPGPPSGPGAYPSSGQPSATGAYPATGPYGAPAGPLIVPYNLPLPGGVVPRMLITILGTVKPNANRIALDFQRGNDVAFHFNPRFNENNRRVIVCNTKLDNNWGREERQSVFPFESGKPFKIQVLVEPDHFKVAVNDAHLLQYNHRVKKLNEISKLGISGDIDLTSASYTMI
human Gal-1 (hGal-1), sequence (P09382 2-135 limits assumed): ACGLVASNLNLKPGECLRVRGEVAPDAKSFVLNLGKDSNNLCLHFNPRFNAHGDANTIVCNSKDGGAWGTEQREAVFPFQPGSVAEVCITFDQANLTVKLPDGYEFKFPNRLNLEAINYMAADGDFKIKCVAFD

With `CO[C@@H]1[C@@H](n2cc(-c3cc(F)c(F)c(F)c3)nn2)[C@@H](O)[C@@H](CO)O[C@@H]1Cn1cc(C2CCN(S(=O)(=O)c3ccc(C)cc3)CC2)nn1` [Example 4.23, (2R,3R,4S,5R,6R)-2-(hydroxymethyl)-5-methoxy-6-((4-(1-tosylpiperidin-4-yl)-1H-1,2,3-triazol-1-yl)methyl)-4-(4-(3,4,5-trifluorophenyl)-1H-1,2,3-triazol-1-yl)tetrahydro-2H-pyran-3-ol], the IC50 turned out to be 1230 nM at human Gal-1 (hGal-1) and 38 nM on human Gal-3 (hGal-3).

Consider `CCN=S1(=O)CCC(n2cc(C[C@H]3O[C@H](CO)[C@H](O)[C@H](n4cc(-c5cc(F)c(F)c(F)c5)nn4)[C@H]3OC)nn2)CC1` (stereo partly drawn) [Example 4.24, 1-(ethylimino)-4-(4-(((2R,3R,4S,5R,6R)-5-hydroxy-6-(hydroxymethyl)-3-methoxy-4-(4-(3,4,5-trifluorophenyl)-1H-1,2,3-triazol-1-yl)tetrahydro-2H-pyran-2-yl)methyl)-1H-1,2,3-triazol-1-yl)hexahydro-1l6-thiopyran 1-oxide], for which the IC50 on human Gal-1 (hGal-1) was 310 nM; on human Gal-3 (hGal-3), 54 nM.

Turning to `CN=S(=O)(C(C)C)N1CCC(c2cn(C[C@H]3O[C@H](CO)[C@H](O)[C@H](n4cc(-c5cc(F)c(F)c(F)c5)nn4)[C@H]3OC)nn2)CC1` (stereo partly drawn) [Example 4.25, (2R,3R,4S,5R,6R)-2-(hydroxymethyl)-5-methoxy-6-((4-(1-(N-methylpropan-2-ylsulfonimidoyl)piperidin-4-yl)-1H-1,2,3-triazol-1-yl)methyl)-4-(4-(3,4,5-trifluorophenyl)-1H-1,2,3-triazol-1-yl)tetrahydro-2H-pyran-3-ol], the IC50 at human Gal-1 (hGal-1) amounted to 1570 nM; at human Gal-3 (hGal-3) it was 120 nM.

In the case of `CO[C@@H]1[C@@H](n2cc(-c3cc(F)c(F)c(F)c3)nn2)[C@@H](O)[C@@H](CO)O[C@@H]1Cn1cc(C2CCN(S(=O)(=O)N(C)C)CC2)nn1` [Example 4.26, 4-(1-(((2R,3R,4S,5R,6R)-5-hydroxy-6-(hydroxymethyl)-3-methoxy-4-(4-(3,4,5-trifluorophenyl)-1H-1,2,3-triazol-1-yl)tetrahydro-2H-pyran-2-yl)methyl)-1H-1,2,3-triazol-4-yl)-N,N-dimethylpiperidine-1-sulfonamide], the IC50 is 1240 nM at human Gal-1 (hGal-1) and 61 nM on human Gal-3 (hGal-3).

`CO[C@@H]1[C@@H](n2cc(-c3cc(F)c(F)c(F)c3)nn2)[C@@H](O)[C@@H](CO)O[C@@H]1Cn1cc(C2CCN(C(=O)NC(C)(C)C)CC2)nn1` [Example 4.27, N-(tert-butyl)-4-(1-(((2R,3R,4S,5R,6R)-5-hydroxy-6-(hydroxymethyl)-3-methoxy-4-(4-(3,4,5-trifluorophenyl)-1H-1,2,3-triazol-1-yl)tetrahydro-2H-pyran-2-yl)methyl)-1H-1,2,3-triazol-4-yl)piperidine-1-carboxamide]: the results for the IC50 on human Gal-1 (hGal-1) and on human Gal-3 (hGal-3) were 380 nM and 34 nM, respectively.

In the case of `CO[C@@H]1[C@@H](n2cc(-c3cc(F)c(F)c(F)c3)nn2)[C@@H](O)[C@@H](CO)O[C@@H]1Cc1cn(C2CCS(=O)(=NCc3ccccc3)CC2)nn1` (stereo partly drawn) [Example 4.28, 1-(benzylimino)-4-(4-(((2R,3R,4S,5R,6R)-5-hydroxy-6-(hydroxymethyl)-3-methoxy-4-(4-(3,4,5-trifluorophenyl)-1H-1,2,3-triazol-1-yl)tetrahydro-2H-pyran-2-yl)methyl)-1H-1,2,3-triazol-1-yl)hexahydro-1l6-thiopyran 1-oxide], the values for the IC50 at human Gal-1 (hGal-1) and at human Gal-3 (hGal-3) were 120 nM and 13 nM, respectively.

Consider `CO[C@@H]1[C@@H](n2cc(-c3cc(F)c(F)c(F)c3)nn2)[C@@H](O)[C@@H](CO)O[C@@H]1Cn1cc(C2CCCCC2)nn1` [Example 4.29, (2R,3R,4S,5R,6R)-6-((4-cyclohexyl-1H-1,2,3-triazol-1-yl)methyl)-2-(hydroxymethyl)-5-methoxy-4-(4-(3,4,5-trifluorophenyl)-1H-1,2,3-triazol-1-yl)tetrahydro-2H-pyran-3-ol], for which the IC50 at human Gal-1 (hGal-1) was determined as 2740 nM; at human Gal-3 (hGal-3) it was 310 nM.

Broadly, the IC50 is the concentration that inhibits the measured activity by half. High values mean lower potency, low ones higher potency.

Values taken from US12319672B2, “Alpha-D-galactopyranoside derivatives” (Idorsia Pharmaceuticals Ltd, priority 2019, dated 2025).
